# Results published in ChEMBL document CHEMBL1201862, “PubChem BioAssay data set” (2004).
# Calls of active or inactive are those of the source.
# Key:
# [1] = target: T1, Heat shock factor protein 1 (Mus musculus, UniProt P38532); assay: enhancement of HSF1-driven luciferase signal – cell-based, NIH3T3, luminescence, dose retest, confirmation (AID 435004); assay type: functional;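 note: stress induced by proteasome inhibitor MG132 added 30 min after compound; luciferase reporter driven by HSF1 response element in NIH3T3 cells; actives raise luminescence as potentiators of the MG132 stress response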
# T1 sequence (P38532 whole entry): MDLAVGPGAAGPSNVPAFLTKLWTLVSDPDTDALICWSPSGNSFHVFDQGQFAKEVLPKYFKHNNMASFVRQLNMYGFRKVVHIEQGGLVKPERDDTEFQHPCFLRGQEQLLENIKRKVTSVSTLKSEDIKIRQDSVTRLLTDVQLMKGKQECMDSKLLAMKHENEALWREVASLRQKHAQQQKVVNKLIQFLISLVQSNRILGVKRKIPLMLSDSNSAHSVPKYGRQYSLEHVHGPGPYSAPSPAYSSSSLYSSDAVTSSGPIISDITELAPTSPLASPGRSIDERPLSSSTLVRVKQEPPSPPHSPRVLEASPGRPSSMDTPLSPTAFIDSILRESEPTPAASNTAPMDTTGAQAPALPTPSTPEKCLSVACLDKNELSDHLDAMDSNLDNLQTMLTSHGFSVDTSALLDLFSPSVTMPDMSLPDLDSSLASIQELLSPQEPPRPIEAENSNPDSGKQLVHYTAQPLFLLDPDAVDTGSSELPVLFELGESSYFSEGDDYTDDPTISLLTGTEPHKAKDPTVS
# [2] = Luminescence-based cell-based high throughput dose response assay to identify activators of the DAF-12 from the parasite S. stercoralis (ssDAF-12).; assay type: functional
# [3] = target: T2, Oxysterols receptor LXR-beta (Homo sapiens, UniProt P55055); assay: LXR agonists, Gal4 luciferase reporter, dose response, counter-screen for ssDAF-12 agonist project, cell-based, luminescence, HEK293, S. stercoralis campaign (AID 720737); assay type: functional; details: read-out: IC50 (the source's name)
# T2 sequence (P55055 whole entry): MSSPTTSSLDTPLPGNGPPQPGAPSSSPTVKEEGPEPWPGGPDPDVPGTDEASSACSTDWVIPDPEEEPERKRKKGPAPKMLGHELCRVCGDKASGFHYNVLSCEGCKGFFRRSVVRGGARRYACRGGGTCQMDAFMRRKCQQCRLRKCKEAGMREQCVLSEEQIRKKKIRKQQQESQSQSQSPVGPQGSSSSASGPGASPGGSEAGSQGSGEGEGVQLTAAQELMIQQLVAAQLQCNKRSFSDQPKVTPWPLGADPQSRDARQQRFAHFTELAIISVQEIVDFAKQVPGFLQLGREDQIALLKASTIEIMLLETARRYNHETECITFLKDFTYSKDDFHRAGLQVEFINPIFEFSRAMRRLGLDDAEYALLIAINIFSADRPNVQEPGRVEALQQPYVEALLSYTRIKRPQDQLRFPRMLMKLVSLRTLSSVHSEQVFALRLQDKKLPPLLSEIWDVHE
# [4] = target: Eukaryotic translation initiation factor 4E (Mus musculus, UniProt P63073); assay: blockers of eIF4G binding by eIF4E – biochemical, TR-FRET, dose response (AID 855); assay type: functional;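 note: potency for disrupting eIF4E binding to eIF4GI seen as loss of FRET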
# [5] = Luminescence Cell-Based Dose Response to Identify Activators of 5'UTR Stem-Loop Driven Prion Protein mRNA Translation in H4-C Neuroglioblastoma Cells. [Related pubchem assays: 1829 (Project Summary), 1814 (Primary HTS)]; assay type: functional
# [6] = Luminescence Cell-Based Dose Response HTS to Identify Activators of Luciferase Translation or Activity in H4 […] Cells. [Related pubchem assays: 1829 (Project Summary), 1814 (Primary HTS)]; assay type: functional
# [7] = Luminescence Cell-Based Dose Response to Identify Activators of Luciferase Translation or Activity in H4-C Neuroglioblastoma Cells. [Related pubchem assays: 1829 (Project Summary), 1814 (Primary HTS)]; assay type: functional
# [8] = Luminescence Cell-Based Dose Confirmation to Identify Activators of 5'UTR Stem-Loop Driven Alpha-Synuclein mRNA Translation in H4 Neuroglioblastoma Cells. [Related pubchem assays: 1829 (Project Summary), 1814 (Primary HTS)]; assay type: functional
# Aminopeptidase N = target: T3, Aminopeptidase N (Plasmodium falciparum FcB1/Columbia, UniProt O96935); assay: malaria alanyl aminopeptidase activity blockers – biochemical, fluorogenic H-Leu-NHMec substrate, 1536-well (AID 1445); design: species or system Plasmodium falciparum 3D7, 3D7
# T3 sequence (O96935 whole entry): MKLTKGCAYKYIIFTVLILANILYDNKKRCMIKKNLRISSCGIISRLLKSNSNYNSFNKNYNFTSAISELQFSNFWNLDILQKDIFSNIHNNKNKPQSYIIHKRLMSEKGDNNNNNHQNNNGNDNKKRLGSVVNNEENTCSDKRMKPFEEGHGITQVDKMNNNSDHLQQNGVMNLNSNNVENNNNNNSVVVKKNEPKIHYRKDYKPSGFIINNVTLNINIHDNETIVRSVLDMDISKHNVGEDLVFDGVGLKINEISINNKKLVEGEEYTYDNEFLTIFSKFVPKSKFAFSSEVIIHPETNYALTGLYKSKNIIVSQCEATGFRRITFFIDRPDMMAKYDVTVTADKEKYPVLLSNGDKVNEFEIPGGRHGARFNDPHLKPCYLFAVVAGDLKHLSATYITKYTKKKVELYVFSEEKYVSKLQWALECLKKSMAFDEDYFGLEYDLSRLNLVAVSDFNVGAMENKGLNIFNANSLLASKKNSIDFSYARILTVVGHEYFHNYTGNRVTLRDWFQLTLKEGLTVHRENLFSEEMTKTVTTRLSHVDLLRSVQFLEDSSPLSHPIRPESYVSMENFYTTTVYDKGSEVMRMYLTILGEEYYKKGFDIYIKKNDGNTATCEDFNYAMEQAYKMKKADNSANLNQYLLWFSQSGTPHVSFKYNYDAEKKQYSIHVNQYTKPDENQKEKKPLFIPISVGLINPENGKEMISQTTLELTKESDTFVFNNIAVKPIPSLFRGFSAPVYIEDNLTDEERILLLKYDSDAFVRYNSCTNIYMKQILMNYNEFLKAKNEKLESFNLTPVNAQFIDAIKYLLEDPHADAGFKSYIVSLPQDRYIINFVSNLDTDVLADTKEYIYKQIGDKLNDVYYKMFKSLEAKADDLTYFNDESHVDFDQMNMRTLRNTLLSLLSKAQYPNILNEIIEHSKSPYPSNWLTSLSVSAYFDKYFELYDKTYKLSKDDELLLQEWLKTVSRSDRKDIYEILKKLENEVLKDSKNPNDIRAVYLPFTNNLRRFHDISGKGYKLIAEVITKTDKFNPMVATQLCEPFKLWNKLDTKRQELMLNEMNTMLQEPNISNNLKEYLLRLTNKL
# INS1 = assay: INS-1E survival protection against cytokine death – cell-based, luminescence, retest, dose response (AID 449756); assay type: functional; details: Rattus norvegicus;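 note: cell death triggered by IL-1 beta plus TNF-alpha plus IFN-gamma mixture; protective hits raise ATP signal compared with cytokine alone wells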
# Fatty acid synthase [9] = target: T4, Fatty acid synthase (Homo sapiens, UniProt P49327); assay: inhibition of human FAS-TE enzyme activity – biochemical, endpoint fluorescence intensity, uHTS hits, dose response (AID 624327); assay type: functional;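 note: fluorescence from hydrolysis of an O-methyl fluorescein acyl ester substrate by the enzyme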
# Fatty acid synthase [10] = target: T4, Fatty acid synthase; assay: inhibition of human FAS-TE enzyme activity – biochemical, kinetic fluorescence intensity, dose response (AID 624326); assay type: functional;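 note: rate of fluorescence rise from hydrolysis of a fluorogenic O-methyl fluorescein ester substrate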
# [11] = THP-1 cell cytotoxicity, dose response, cytotoxicity control for non-replicating M. tuberculosis project (AID 489025); assay type: functional
# cells = assay type: functional
# H9c2 = assay: cells; assay type: functional, cell-based; details: Rattus norvegicus, H9c2, Myocardium;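 note: confirmatory concentration-response retest of ultra-high-throughput screening hits for modulation of myocardial damage; cell death induced by hydrogen peroxide oxidative stress; compound pretreatment for 60 min then peroxide exposure for 2 h; potency is for protecting the cells against peroxide damage rather than for killing them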
# [12] = Luminescence Cell-Based Dose Confirmation HTS to Identify Activators of 5'UTR Stem-Loop Driven Alpha-Synuclein mRNA Translation in H4 Neuroglioblastoma Cells. [Related pubchem assays: 1829 (Project Summary), 1814 (Primary HTS)]; assay type: functional
# H4 = assay: Luminescence Cell-Based Dose Response HTS to Identify Activators of 5'UTR Stem-Loop Driven Prion Protein mRNA Translation in H4 Neuroglioblastoma Cells. [Related pubchem assays: 1829 (Project Summary), 1814 (Primary HTS)]; assay type: functional; details: Homo sapiens
# Bcl-2-like protein 10 = target: T5, Bcl-2-like protein 10 (Homo sapiens, UniProt Q9HD36); assay: Bcl-B/TR3 peptide binding disruption – biochemical, fluorescence polarization, FITC-TR3 peptide, selectivity assay for Bfl-1 inhibitor project, primary screen (AID 748);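 note: fluorescence polarization from a fluorescein-labelled TR3 peptide binding purified Bcl-B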
# T5 sequence (Q9HD36 whole entry): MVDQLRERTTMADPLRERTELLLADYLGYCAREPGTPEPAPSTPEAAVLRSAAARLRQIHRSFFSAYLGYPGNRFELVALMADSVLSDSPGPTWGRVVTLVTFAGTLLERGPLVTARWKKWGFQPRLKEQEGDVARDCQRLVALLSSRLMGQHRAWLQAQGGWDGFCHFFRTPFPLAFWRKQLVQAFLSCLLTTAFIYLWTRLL
# [13] = target: G-protein coupled receptor 55 (Homo sapiens, UniProt Q9Y2T6); assay: inhibition of LPI-stimulated GPR55 beta-arrestin translocation – imaging, U2OS, beta-arrestin-GFP, LPI agonist, primary screen (AID 2013); assay type: functional;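 note: antagonist potency measured as reduced agonist-driven arrestin aggregation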
# [14] = target: DNA dC->dU-editing enzyme APOBEC-3A (Homo sapiens, UniProt P31941); assay: Dose Response confirmation of small molecule APOBEC3A DNA Deaminase Inhibitors via a fluorescence-based single-stranded DNA deaminase assay. [Related pubchem assays (depositor defined):AID493011, AID493024]; assay type: functional
# [15] = target: DNA dC->dU-editing enzyme APOBEC-3G (Homo sapiens, UniProt Q9HC16); assay type: functional;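 note: Dose-response counterscreen measuring inhibition of APOBEC3G DNA deaminase activity, run while confirming APOBEC3A inhibitors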
# [16] = HepG2 cell cytotoxicity, dose response, cytotoxicity control for non-replicating M. tuberculosis project (AID 489018); assay type: functional; details: Mycobacterium tuberculosis
# [17] = NIH-3T3 fibroblast cytotoxicity, dose response, cytotoxicity control, cell-based, fluorescence, Alamar Blue, secondary assay (AID 2327); assay type: functional;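 note: NIH-3T3 mouse fibroblasts cultured with fluconazole at 8 µg/mL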
# [18] = luciferase reporter signal suppression in cells – H4 neuroglioma cells, luminescence, dose response (AID 1990); assay type: functional, cell-based
# [19] = Luminescence Cell-Based Dose Response HTS to Identify Inhibitors of 5'UTR Stem-Loop Driven Prion Protein mRNA Translation in H4 Neuroglioblastoma Cells. [Related pubchem assays: 1827 (Project Summary), 1813 (Primary HTS)]; assay type: functional
# [20] = alpha-synuclein stem-loop luciferase translation blockers – H4 neuroglioma cells, luminescence, confirmation (AID 1988); assay type: functional, cell-based
# [21] = fluconazole-exposed Candida albicans growth modulators – fluorescence, retest, confirmation (AID 2467); assay type: functional, cell-based
# [22] = HEK-293T viability loss after treatment – luminescence, T-cell screen hits, cytotoxicity control for TCR NF-kB inhibitor project, dose response (AID 489026); assay type: functional, cell-based;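 note: cells exposed to compound about 14 hours before the viability readout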
# Sequence of DNA dC->dU-editing enzyme APOBEC-3A (P31941 whole entry): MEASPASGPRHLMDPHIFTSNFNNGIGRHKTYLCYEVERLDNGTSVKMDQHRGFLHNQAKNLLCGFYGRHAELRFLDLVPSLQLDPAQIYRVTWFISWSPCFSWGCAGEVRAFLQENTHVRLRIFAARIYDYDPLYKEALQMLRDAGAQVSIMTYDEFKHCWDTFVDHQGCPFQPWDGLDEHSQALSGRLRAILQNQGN
# Sequence of DNA dC->dU-editing enzyme APOBEC-3G (Q9HC16 whole entry): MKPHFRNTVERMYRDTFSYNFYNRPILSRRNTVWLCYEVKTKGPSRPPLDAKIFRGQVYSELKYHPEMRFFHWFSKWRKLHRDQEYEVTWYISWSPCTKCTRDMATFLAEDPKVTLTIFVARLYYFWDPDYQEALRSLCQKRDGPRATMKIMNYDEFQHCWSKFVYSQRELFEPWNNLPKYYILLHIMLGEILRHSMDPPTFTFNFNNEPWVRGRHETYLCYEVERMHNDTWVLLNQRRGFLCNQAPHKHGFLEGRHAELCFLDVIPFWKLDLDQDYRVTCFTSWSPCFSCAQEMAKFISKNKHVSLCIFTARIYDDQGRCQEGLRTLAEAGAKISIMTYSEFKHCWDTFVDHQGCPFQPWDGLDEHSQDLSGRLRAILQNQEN
# T4 sequence (P49327 whole entry): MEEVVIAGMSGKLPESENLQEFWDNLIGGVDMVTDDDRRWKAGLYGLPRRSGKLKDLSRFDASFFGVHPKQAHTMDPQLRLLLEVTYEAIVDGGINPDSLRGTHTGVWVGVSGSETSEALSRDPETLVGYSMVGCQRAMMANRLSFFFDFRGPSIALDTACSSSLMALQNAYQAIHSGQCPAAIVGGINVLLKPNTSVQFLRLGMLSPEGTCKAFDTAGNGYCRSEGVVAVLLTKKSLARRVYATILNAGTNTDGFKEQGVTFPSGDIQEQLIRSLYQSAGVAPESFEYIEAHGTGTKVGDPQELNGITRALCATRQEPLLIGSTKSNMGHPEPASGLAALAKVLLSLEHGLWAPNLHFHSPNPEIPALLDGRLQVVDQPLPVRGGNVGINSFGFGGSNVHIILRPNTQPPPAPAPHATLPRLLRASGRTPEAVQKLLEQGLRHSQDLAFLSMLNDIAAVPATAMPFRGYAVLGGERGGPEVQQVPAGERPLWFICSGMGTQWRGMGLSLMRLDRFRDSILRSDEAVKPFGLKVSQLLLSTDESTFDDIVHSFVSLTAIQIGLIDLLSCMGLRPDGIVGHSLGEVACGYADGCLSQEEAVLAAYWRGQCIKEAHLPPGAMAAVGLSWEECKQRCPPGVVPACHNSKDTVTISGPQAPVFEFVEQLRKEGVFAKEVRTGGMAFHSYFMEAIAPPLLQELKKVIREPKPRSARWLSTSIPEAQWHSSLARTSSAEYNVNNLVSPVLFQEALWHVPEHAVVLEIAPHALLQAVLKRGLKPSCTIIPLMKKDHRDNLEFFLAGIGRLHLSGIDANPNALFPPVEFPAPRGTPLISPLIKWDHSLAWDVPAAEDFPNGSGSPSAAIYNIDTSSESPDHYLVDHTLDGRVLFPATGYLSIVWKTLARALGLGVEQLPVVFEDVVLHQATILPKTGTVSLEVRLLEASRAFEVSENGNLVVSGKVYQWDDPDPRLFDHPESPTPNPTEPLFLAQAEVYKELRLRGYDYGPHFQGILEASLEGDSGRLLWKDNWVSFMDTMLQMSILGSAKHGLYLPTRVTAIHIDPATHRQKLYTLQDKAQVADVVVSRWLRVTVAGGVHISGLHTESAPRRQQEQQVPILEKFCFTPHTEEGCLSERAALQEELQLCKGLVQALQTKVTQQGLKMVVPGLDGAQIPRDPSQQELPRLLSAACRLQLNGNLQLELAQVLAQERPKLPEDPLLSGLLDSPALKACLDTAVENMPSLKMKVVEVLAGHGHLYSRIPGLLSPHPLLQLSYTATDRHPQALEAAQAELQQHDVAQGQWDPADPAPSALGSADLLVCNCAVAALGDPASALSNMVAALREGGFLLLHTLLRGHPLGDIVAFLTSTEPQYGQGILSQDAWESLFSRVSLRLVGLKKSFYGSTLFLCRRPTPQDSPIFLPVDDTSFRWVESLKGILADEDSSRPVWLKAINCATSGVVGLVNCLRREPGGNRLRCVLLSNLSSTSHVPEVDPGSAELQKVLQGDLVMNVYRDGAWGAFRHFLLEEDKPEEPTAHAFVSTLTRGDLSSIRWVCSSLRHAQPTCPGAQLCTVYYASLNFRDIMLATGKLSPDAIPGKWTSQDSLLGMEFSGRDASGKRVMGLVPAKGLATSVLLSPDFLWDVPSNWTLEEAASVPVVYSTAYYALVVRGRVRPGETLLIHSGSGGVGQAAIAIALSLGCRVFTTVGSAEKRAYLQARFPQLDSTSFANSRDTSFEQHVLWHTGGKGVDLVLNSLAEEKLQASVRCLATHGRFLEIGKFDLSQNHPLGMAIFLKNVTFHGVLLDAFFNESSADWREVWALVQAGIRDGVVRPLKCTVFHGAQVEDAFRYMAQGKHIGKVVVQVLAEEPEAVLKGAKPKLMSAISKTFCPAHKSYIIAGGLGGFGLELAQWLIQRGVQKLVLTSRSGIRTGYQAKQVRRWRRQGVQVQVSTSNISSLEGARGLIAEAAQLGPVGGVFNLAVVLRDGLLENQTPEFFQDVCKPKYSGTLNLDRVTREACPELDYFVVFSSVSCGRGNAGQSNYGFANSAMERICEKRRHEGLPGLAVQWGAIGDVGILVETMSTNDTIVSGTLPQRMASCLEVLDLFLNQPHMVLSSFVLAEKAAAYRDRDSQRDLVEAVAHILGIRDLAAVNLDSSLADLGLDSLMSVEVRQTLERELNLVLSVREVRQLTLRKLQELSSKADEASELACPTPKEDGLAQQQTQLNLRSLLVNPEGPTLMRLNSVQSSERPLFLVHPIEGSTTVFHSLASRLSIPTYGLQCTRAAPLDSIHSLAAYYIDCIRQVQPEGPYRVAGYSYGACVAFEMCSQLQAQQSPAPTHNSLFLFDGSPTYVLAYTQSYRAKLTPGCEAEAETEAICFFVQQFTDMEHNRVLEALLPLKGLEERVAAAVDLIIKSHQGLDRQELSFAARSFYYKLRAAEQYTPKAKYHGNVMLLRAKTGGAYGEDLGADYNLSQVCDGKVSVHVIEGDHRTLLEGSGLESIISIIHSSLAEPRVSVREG
# Sequence of Eukaryotic translation initiation factor 4E (P63073 whole entry): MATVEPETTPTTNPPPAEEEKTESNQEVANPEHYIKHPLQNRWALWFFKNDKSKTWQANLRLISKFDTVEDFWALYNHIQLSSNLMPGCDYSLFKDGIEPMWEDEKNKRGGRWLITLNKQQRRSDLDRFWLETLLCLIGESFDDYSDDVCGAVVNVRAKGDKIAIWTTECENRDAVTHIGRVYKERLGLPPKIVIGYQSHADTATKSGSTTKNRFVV
# Sequence of G-protein coupled receptor 55 (Q9Y2T6 whole entry): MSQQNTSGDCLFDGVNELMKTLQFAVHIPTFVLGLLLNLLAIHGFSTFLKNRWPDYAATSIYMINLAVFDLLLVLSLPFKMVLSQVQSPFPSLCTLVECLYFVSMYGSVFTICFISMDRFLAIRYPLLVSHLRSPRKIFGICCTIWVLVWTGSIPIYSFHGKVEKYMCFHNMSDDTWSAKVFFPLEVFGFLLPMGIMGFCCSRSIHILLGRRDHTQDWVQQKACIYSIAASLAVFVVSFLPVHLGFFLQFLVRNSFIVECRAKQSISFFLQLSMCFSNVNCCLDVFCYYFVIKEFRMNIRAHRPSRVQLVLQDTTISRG
smiles,measurement,setting,value
CCC(C)Sc1nc2c3ccccc3nc-2c(O)n1C (centres undefined),EC50,[1],> 260 µM (inactive)
same,IC50,[2],> 67.5 µM (inactive)
same,EC50,[3],> 67.5 µM (inactive)
COc1ccc(CC(=O)Nc2ccc(-c3nnc(-c4ccccc4)o3)cc2)cc1OC,IC50,[4],> 64 µM (inactive)
Cc1nc2c(C(=O)N3CCCCC3)cnn2c(C)c1Cc1ccccc1F,EC50,[5],0.57 µM (active)
same,EC50,[6],< 0.1 µM (active)
same,EC50,[7],0.267 µM (active)
same,EC50,[8],> 12 µM (not active)
S=C(Nc1cccc(Cl)c1Cl)N1CCC2(CC1)OCCO2,IC50,[4],50 µM (inactive)
O=C(CNC(=O)c1ccccc1)N/N=C/c1cc(Br)ccc1O,IC50,Aminopeptidase N,22.6 µM (active)
same,AC50,INS1,3.5 µM (active)
same,IC50,Fatty acid synthase [9],12.7 µM (active)
same,IC50,Fatty acid synthase [10],10.2 µM (active)
O=C(COc1ccc(F)cc1)N/N=C/c1cccc2cccnc12,CC50,[11],24.8 µM (active)
same,IC50,cells,17.2 µM (active)
same,IC50,H9c2,20.8 µM (active)
O=C(C[n+]1cc(-c2ccc(F)cc2)n2c1CCC2)c1cccs1,EC50,[5],1.06 µM (active)
same,EC50,[12],< 0.1 µM (active)
same,EC50,[6],0.136 µM (inconclusive)
same,EC50,H4,29.9 µM (inconclusive)
same,EC50,[7],> 12 µM (not active)
same,EC50,[8],3.26 µM (active)
Cc1cccc(OCC(=O)Nc2ccc(S(=O)(=O)N3CCCC3)cc2)c1,IC50,Bcl-2-like protein 10,> 100 µM (inactive)
Cc1ccc(S(=O)(=O)Nc2nc3ccc(S(=O)(=O)N4CCCC4)cc3s2)cc1,IC50,Aminopeptidase N,53.5 µM (active)
CCCCCn1c(C(Cc2ccccc2)NC(C)=O)nc2ccccc21 (centres undefined),IC50,[13],4.08 µM (active)
O=C(CN1CCC(NC(=O)c2cccc(F)c2)CC1)Nc1ccc(Br)cc1,IC50,cells,47.8 µM (active)
Clc1ccc2nc(CN3CCCc4ccccc43)cn2c1,IC50,Bcl-2-like protein 10,72.5 µM (inactive)
Cc1n(CC(O)COCc2ccccc2)c2ccccc2[n+]1C (centres undefined),IC50,[14],2.82 µM (active)
same,IC50,[15],5.05 µM (active)
O=C(NNC1=C(C(=O)C(F)(F)F)CCC1)c1ccccc1Cl,CC50,[11],13.6 µM (active)
same,CC50,[16],> 20 µM (active)
CC[n+]1cc(C)ccc1C=Cc1ccc(N(C)C)cc1,EC50,[17],58.6 µM (active)
same,EC50,[18],11.7 µM (active)
same,EC50,[19],65.4 µM (active)
same,EC50,[20],10.4 µM (active)
same,EC50,[21],1.25 µM (active)
same,IC50,[14],2.73 µM (active)
same,IC50,[22],> 80 µM (inactive)
same,IC50,[15],4.02 µM (active)
CCCn1nc(NC(=O)COC)c2cc3cc(C)ccc3nc21,EC50,[12],3.88 µM (active)
same,EC50,[6],12.9 µM (active)
same,EC50,H4,> 120 µM (inconclusive)
same,IC50,[14],2.71 µM (active)
same,IC50,[15],2.89 µM (active)
